Test results from ChEMBL document CHEMBL1201862, “PubChem BioAssay data set” (2004).
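Assay format: 96-well plates, 48-hour exposure. At the GI50, growth is halved.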 Calls of active or inactive are those of the source. Rule as the data show it: active = GI50 up to about 1.1 µM and inactive = higher.

Experiments:
Test in all cases: DTP human tumour cell line panel, 48 h
Hs-578T = tested on: Hs-578T
NCI-H226 = tested on: NCI-H226
CCRF-CEM = tested on: CCRF-CEM
UACC-62 = tested on: UACC-62
Malme-3M = tested on: Malme-3M
OVCAR-3 = tested on: OVCAR-3
HOP-92 = tested on: HOP-92
MDA-MB-435 = tested on: MDA-MB-435
M14 = tested on: M14
NCI-H522 = tested on: NCI-H522
SF-539 = tested on: SF-539
MDA-MB-231 = tested on: MDA-MB-231
HCT-116 = tested on: HCT-116
A498 = tested on: A498
A549 = tested on: A549
HCT-15 = tested on: HCT-15
IGROV-1 = tested on: IGROV-1
K562 = tested on: K562
SR = tested on: SR
SK-MEL-2 = tested on: SK-MEL-2
OVCAR-4 = tested on: OVCAR-4
KM12 = tested on: KM12
RXF 393 = tested on: RXF 393
MCF7 = tested on: MCF7
T47D = tested on: T47D
EKVX = tested on: EKVX
RPMI-8226 = tested on: RPMI-8226
UO-31 = tested on: UO-31
MDA-N = tested on: MDA-N
NCI-H23 = tested on: NCI-H23
OVCAR-8 = tested on: OVCAR-8
TK-10 = tested on: TK-10
SK-MEL-5 = tested on: SK-MEL-5
SW-620 = tested on: SW-620
NCI/ADR-RES = tested on: NCI/ADR-RES
CAKI-1 = tested on: CAKI-1
SNB-19 = tested on: SNB-19
SF-295 = tested on: SF-295
PC-3 = tested on: PC-3
LOX IMVI = tested on: LOX IMVI
ACHN = tested on: ACHN
U-251 = tested on: U-251
SN12C = tested on: SN12C
786-0 = tested on: 786-0
NCI-H460 = tested on: NCI-H460
BT-549 = tested on: BT-549
HT-29 = tested on: HT-29
SK-MEL-28 = tested on: SK-MEL-28
DU-145 = tested on: DU-145
COLO 205 = tested on: COLO 205
HCC 2998 = tested on: HCC 2998
UACC-257 = tested on: UACC-257
OVCAR-5 = tested on: OVCAR-5
SNB-75 = tested on: SNB-75
SF-268 = tested on: SF-268
HL-60 = tested on: HL-60
HOP-62 = tested on: HOP-62
SK-OV-3 = tested on: SK-OV-3
MOLT-4 = tested on: MOLT-4

## Cc1cn(C2CC(O)C(CO[Si](C)(C)C(C)(C)C)OC2OC(C)C)c(=O)[nH]c1=O (stereo unspecified)
Hs-578T
  GI50: 67.3 µM (inactive)
NCI-H226
  GI50: 41.9 µM (inactive)
CCRF-CEM
  GI50: 36.1 µM (inactive)
UACC-62
  GI50: > 100 µM (inactive)
Malme-3M
  GI50: 44.5 µM (inactive)
OVCAR-3
  GI50: 20.6 µM (inactive)
HOP-92
  GI50: 32.2 µM (inactive)
MDA-MB-435
  GI50: 60 µM (inactive)
M14
  GI50: 34.9 µM (inactive)
NCI-H522
  GI50: 30.2 µM (inactive)
SF-539
  GI50: 21.9 µM (inactive)
MDA-MB-231
  GI50: 35.2 µM (inactive)
HCT-116
  GI50: 16.5 µM (inactive)
A498
  GI50: > 10 µM (inactive)
A549
  GI50: 34.1 µM (inactive)
HCT-15
  GI50: 58.5 µM
IGROV-1
  GI50: 29.8 µM (inactive)
K562
  GI50: 49.3 µM (inactive)
SR
  GI50: 31.2 µM (inactive)
SK-MEL-2
  GI50: 36 µM (inactive)
OVCAR-4
  GI50: 44.5 µM (inactive)
KM12
  GI50: 49.5 µM (inactive)
RXF 393
  GI50: 34 µM (inactive)
MCF7
  GI50: 22.4 µM (inactive)
T47D
  GI50: 72.3 µM (inactive)
EKVX
  GI50: 42.5 µM (inactive)
RPMI-8226
  GI50: 37.7 µM (inactive)
UO-31
  GI50: 44.8 µM (inactive)
MDA-N
  GI50: 36.1 µM (inactive)
NCI-H23
  GI50: 39.6 µM (inactive)
OVCAR-8
  GI50: 33.5 µM (inactive)
TK-10
  GI50: 39.5 µM (inactive)
SK-MEL-5
  GI50: 32.7 µM (inactive)
SW-620
  GI50: 49.4 µM (inactive)
NCI/ADR-RES
  GI50: 43.1 µM (inactive)
CAKI-1
  GI50: 55.2 µM (inactive)
SNB-19
  GI50: 74.8 µM (inactive)
SF-295
  GI50: 65 µM (inactive)
PC-3
  GI50: 33.6 µM (inactive)
LOX IMVI
  GI50: 18.5 µM (inactive)
ACHN
  GI50: 50.5 µM (inactive)
U-251
  GI50: 39.3 µM (inactive)
SN12C
  GI50: 39.6 µM (inactive)
786-0
  GI50: 16.6 µM (inactive)
NCI-H460
  GI50: 31.6 µM (inactive)
BT-549
  GI50: 44.9 µM (inactive)
HT-29
  GI50: 20 µM (inactive)
SK-MEL-28
  GI50: 41 µM (inactive)
DU-145
  GI50: > 100 µM (inactive)
COLO 205
  GI50: 21.5 µM (inactive)
HCC 2998
  GI50: 24.5 µM (inactive)
UACC-257
  GI50: 34.6 µM (inactive)
OVCAR-5
  GI50: > 100 µM (inactive)
SNB-75
  GI50: > 100 µM (inactive)
SF-268
  GI50: 51.3 µM (inactive)

## Cn1c(=O)c2[nH]c(N/N=C3/SCC(=O)N3Cc3ccccc3)nc2n(C)c1=O
Hs-578T
  GI50: 17.1 µM (inactive)
NCI-H226
  GI50: > 100 µM (inactive)
CCRF-CEM
  GI50: 22.1 µM (inactive)
UACC-62
  GI50: > 100 µM (inactive)
Malme-3M
  GI50: 52.5 µM (inactive)
OVCAR-3
  GI50: 74.5 µM (inactive)
HOP-92
  GI50: 15.7 µM (inactive)
HL-60
  GI50: 69.5 µM (inactive)
MDA-MB-435
  GI50: 19.1 µM (inactive)
M14
  GI50: 44.3 µM (inactive)
NCI-H522
  GI50: 50.8 µM (inactive)
SF-539
  GI50: 29.1 µM (inactive)
MDA-MB-231
  GI50: 51.9 µM (inactive)
HCT-116
  GI50: 45.4 µM (inactive)
A498
  GI50: > 100 µM (inactive)
A549
  GI50: > 100 µM (inactive)
HCT-15
  GI50: > 100 µM
IGROV-1
  GI50: > 100 µM (inactive)
K562
  GI50: 30.5 µM (inactive)
SR
  GI50: 24.9 µM (inactive)
SK-MEL-2
  GI50: 42.8 µM (inactive)
OVCAR-4
  GI50: 41.6 µM (inactive)
KM12
  GI50: 48.2 µM (inactive)
RXF 393
  GI50: > 100 µM (inactive)
MCF7
  GI50: 19.4 µM (inactive)
T47D
  GI50: 41.1 µM (inactive)
EKVX
  GI50: 42.1 µM (inactive)
RPMI-8226
  GI50: 42.4 µM (inactive)
UO-31
  GI50: > 100 µM (inactive)
MDA-N
  GI50: 16.4 µM (inactive)
NCI-H23
  GI50: 71.9 µM (inactive)
OVCAR-8
  GI50: > 100 µM (inactive)
TK-10
  GI50: > 100 µM (inactive)
SK-MEL-5
  GI50: 34.9 µM (inactive)
HOP-62
  GI50: > 100 µM (inactive)
NCI/ADR-RES
  GI50: > 100 µM (inactive)
SK-OV-3
  GI50: 30.2 µM (inactive)
CAKI-1
  GI50: > 100 µM (inactive)
SNB-19
  GI50: > 100 µM (inactive)
SF-295
  GI50: 21.2 µM (inactive)
PC-3
  GI50: > 100 µM (inactive)
ACHN
  GI50: > 100 µM (inactive)
U-251
  GI50: 55.3 µM (inactive)
SN12C
  GI50: > 100 µM (inactive)
786-0
  GI50: 27 µM (inactive)
NCI-H460
  GI50: > 100 µM (inactive)
BT-549
  GI50: > 100 µM (inactive)
HT-29
  GI50: 48.9 µM (inactive)
SK-MEL-28
  GI50: > 100 µM (inactive)
DU-145
  GI50: 65.6 µM (inactive)
COLO 205
  GI50: > 100 µM (inactive)
HCC 2998
  GI50: > 100 µM (inactive)
MOLT-4
  GI50: 29 µM (inactive)
UACC-257
  GI50: > 100 µM (inactive)
OVCAR-5
  GI50: 19 µM (inactive)
SF-268
  GI50: 33.3 µM (inactive)
